Measured values: paper PMC8409943, “Study on mechanism of low bioavailability of black tea theaflavins by using Caco-2 cell monolayer” (Drug Delivery, 2021)
Like-named read-outs stand apart in the source and are kept apart here.

Legend:
Caco-2 monolayers = test: HPLC-MS/MS identification of metabolites in the absorptive transport of Caco-2 monolayers; format: in vitro ADME, Human; settings: 200 µM, 2 h, AP side or BL side of Caco-2 monolayers
Experimental: TF3G, TF3’G and TFDG were dissolved in DMSO (≤0.5%), and then, diluted with HBSS. Caco-2 cells were incubated with 200 µM TF3G, TF3’G and TFDG at 37 °C for 2 h. Samples collected from both AP side and BL side were measured by HPLC with MS detection, and the metabolites were determined in terms of the standard TF, TF3G, TF3’G, TFDG, and gallic acid (Table S2).

[1] = Stability (recovery rate) of theaflavins in HBSS and DMEM in the absence of cells
Caco-2 cells [2] = test: Intracellular accumulation of theaflavin monomers; settings: 200 μM theaflavins, 2 h incubation, 37 °C
Experimental: Caco-2 cells were seeded at a density of 8 × 10^4 cells per well in 6-well plates (Ni et al., [2020]). After differentiation over a period of 21 days, cells were incubated with 2.0 mL of 200 μM theaflavins at 37 °C. After 2 h incubation, phosphate buffer was added to wash cells in the plate. Then, cell lysates were prepared with RIPA lysis buffer containing 1 mM PMSF as a protease inhibitor and centrifugated at 12,000 rpm for 30 min. Total protein contents were quantified using a BCA estimation kit according to the manufacturer’s instructions (Beyotime). Theaflavins were quantified by HPLC analysis and the intracellular accumulation was expressed as µg theaflavin/mg protein.
Theaflavins were characterized by high performance liquid chromatography (HPLC, Agilent 1100VL, Agilent Technologies Inc., CA, USA). Briefly, samples were extracted with 70% methanol, centrifuged at 685 × g for 10 min, and filtered through a 0.45 μm membrane (Nylon 66). […] Samples were eluted with a gradient of solvent A (100 mL water with 9 mL acetonitrile and 2 mL acetic acid) and B (100 mL acetonitrile with 17.8 mL water and 2 mL acetic acid) as follows: 0–5 min, 95% A; 5–10 min, 90% A; 10–20 min, 70% A; 20–25 min, 65% A; 25–30 min, 70% A; 30–35 min, 100% A. Theaflavins were detected using an ultraviolet detector at a wavelength of 278 nm.

MRP2 = test: Quantitative real-time PCR, mRNA level of MRP2; format: cell-based, Human; settings: Caco-2 cells, 200 μM, 2 h, vs control
Experimental: Cell culture and treatment were performed as described above in 2.6. Total RNA was extracted from Caco-2 cells by the cell RNA extraction kit, and then reverse-transcribed by the cDNA synthesis kit. Gene amplification and quantitative detection were performed as previously described (Ai et al., [2019]). Target mRNA levels were normalized to β-actin mRNA levels. Data were calculated by the 2^−ΔΔCT method.

[3] = Transepithelial transport of theaflavins across Caco-2 cell monolayers, with or without efflux transporter inhibitors; format: in vitro ADME, Human; settings: human; for recovery at 2 h, 200 μM: Caco-2, Caco-2 monolayers, after 2 h incubation; for efflux ratio at 2 h, 200 μM / Papp A→B at 2 h, 200 μM / Papp B→A at 2 h, 200 μM: 2 h incubation
Experimental: (§1) For transport studies, Caco-2 cells were seeded at a density of 3 × 10^5 cells per well in Transwell® inserts (polycarbonate membrane, 24 mm i.d., 0.4 μm pore size, Corning Costar Corp., NY, USA) in 6-well plates (Zhang et al., [2004]). […] The inserts were washed twice with HBSS buffer and equilibrated at 37 °C for 30 min. Standard stock solutions of each theaflavin were diluted to 200 μM with HBSS. For absorptive transport, theaflavins in 1.5 mL HBSS was added into the AP side and 2.6 mL HBSS was added into the BL side of all inserts. For secretory transport, 1.5 mL HBSS and 2.6 mL theaflavins in HBSS were added into AP side and BL side, respectively. Samples were collected from the receiving chamber after 0.5, 1, 2, 3, or 4 h incubation and then were lyophilized at −110 °C in a CoolSafe freeze dryer (LaboGene ApS, Bjarkesvej, Denmark) for HPLC analysis. The recovery rate of theaflavins in the transport was calculated from the above Equation (2).
(§2) Prior to transport inhibition experiment, cells were preincubated for 30 min with 100 μM Vep, 100 μM CsA, 100 μM MK-571, or 10 μM FTC in both sides (Vaidyanathan & Walle, [2001]; Wang et al., [2008]). Then, the absorptive and secretory experiments were performed in the presence of inhibitors as described above. Samples were collected from the receiving chamber after 2 h incubation and then were lyophilized at −110 °C for HPLC analysis.
(§3) The apparent permeability coefficient (Papp, cm/s) was calculated as follows: (3) Papp= dQ/dt×V/(A×C0) where dQ/dt is the variation in concentration on the receiving side over time (μM/s); V, the volume of the solution collected from the receiving chamber (cm^3); A, the area of the membrane (4.67 cm^2); C0, the initial concentration of theaflavins in the donor chamber (μM).
(§4) The efflux ratio was calculated as follows: (4) Efflux ratio= Papp(BL−AP)/Papp(AP−BL) where Papp, apparent permeability coefficient; AP-BL, apical to basolateral transport; BL-AP, basolateral to apical transport.

Caco-2 cell monolayers = test: as above; format: in vitro ADME, Human; settings: absorptive transport, 2 h
Experimental: as §1, §2, §3, §4

Caco-2 cells [4] = test: Cytotoxicity study by CCK-8 method; format: cell-based, Human; settings: 24 h
Experimental: Standard stock solutions (1000 μM) of each theaflavin were prepared in 0.1% dimethyl sulfoxide (DMSO) in deionized water, and diluted with fresh DMEM to 100, 200, 300, 400, and 500 µmol/L respectively. Each inhibitor was prepared as instructions. The cytotoxicity of theaflavins and four inhibitors of multidrug resistant associated proteins to Caco-2 cells was examined by CCK-8 method (Song et al., [2014]). Briefly, Caco-2 cells were inoculated onto 96-well microtiter plates at a density of 1 × 10^4 cells per well. After incubation at 37 °C for 24 h, cells were incubated for another 24 h with different concentrations of theaflavins, followed by adding 10 μL CCK-8 solution and 1 h incubation at 37 °C. The absorbance (OD) value was determined at 450 nm using a microplate reader (ELX-800, Bio-Tek Instruments Inc., Winooski, USA). Four inhibitors were used in this study: Vep, inhibitor of P-gp; CsA, inhibitor and substrate of P-gp; MK-571, inhibitor of MRP1, MRP2 and MRP3; FTC, inhibitor of BCRP (Silbermann et al., [1989]; König et al., [1999]; Renes et al., [1999]; Ali et al., [2017]). The cytotoxicity of Vep, CsA, MK-571 or FTC was also determined by CCK-8 assay. […] To determine the effects of inhibitors on the cytotoxicity of theaflavins, cells were incubated with both different theaflavin monomers (100, 200, 300, 400, and 500 μM) and different inhibitors. IC50, the half inhibitory concentration, was calculated from the cell viability. The cell viability was calculated by the following equation: (1) Cell viability (%)=(ODsample− ODblank)/(ODcontrol− ODblank)×100% where ODsample is the absorbance value of cell + sample + complete medium; ODblank, the absorbance value of complete medium; ODcontrol, the absorbance value of cell + complete medium.

With `O=c1c(O)cc([C@H]2Oc3cc(O)cc(O)c3C[C@H]2O)cc2c([C@H]3Oc4cc(O)cc(O)c4C[C@H]3O)cc(O)c(O)c12` [TF, theaflavin] the “conjugated metabolites (glucuronidated, sulfated and methylated)” value (Caco-2 monolayers) was “not detected”, the “degraded due to the structural instability” value ([1]; 2 h) was 9.3% and the “Recovery rate in DMEM” value ([1]; pH 6.0 DMEM without cells, 200 μM, 37 °C, 2 h incubation) was < 45%. The “Contents of theaflavins absorbed in Caco-2 cells” value (Caco-2 cells [2]) was “-”, the “decrease of mRNA (transcriptional) level of MRP2” value (MRP2) was 38.73% and the recovery at 2 h, 200 μM ([3]; apical to basolateral, read-out: recovery of theaflavins in absorptive transport) was 39.8%. For the same molecule, the recovery at 2 h, 200 μM ([3]; basolateral to apical, read-out: recovery of theaflavins in secretory transport) was 48.9%, the efflux ratio at 2 h, 200 μM ([3]; Caco-2, Papp(BL−AP)/Papp(AP−BL), Ctrl (no inhibitor)) was 1.24 ± 0.09 and the Papp A→B at 2 h, 200 μM ([3]; Caco-2, absorptive transport, 200 μM theaflavin in HBSS, Ctrl (no inhibitor)) was 0.277 ± 0.009 ×10⁻⁶ cm/s. It also gave a Papp B→A at 2 h, 200 μM ([3]; Caco-2, secretory transport, 200 μM theaflavin in HBSS, Ctrl (no inhibitor)) of 0.342 ± 0.014 ×10⁻⁶ cm/s, an efflux ratio at 2 h, 200 μM ([3]; Caco-2, with 10 μM FTC (BCRP inhibitor), + 10 μM FTC (BCRP inhibitor)) of 1.05 ± 0.08 and a Papp A→B at 2 h, 200 μM ([3]; Caco-2, with 10 μM FTC (BCRP inhibitor), absorptive transport, + 10 μM FTC (BCRP inhibitor)) of 0.31 ± 0.01 ×10⁻⁶ cm/s. It also gave a Papp B→A at 2 h, 200 μM ([3]; Caco-2, with 10 μM FTC (BCRP inhibitor), secretory transport, + 10 μM FTC (BCRP inhibitor)) of 0.324 ± 0.013 ×10⁻⁶ cm/s, an efflux ratio at 2 h, 200 μM ([3]; Caco-2, with 100 μM CsA (P-gp inhibitor and substrate), + 100 μM CsA (P-gp inhibitor and substrate)) of 0.62 ± 0.05 and a Papp A→B at 2 h, 200 μM ([3]; Caco-2, with 100 μM CsA (P-gp inhibitor and substrate), absorptive transport, + 100 μM CsA (P-gp inhibitor and substrate)) of 0.565 ± 0.019 ×10⁻⁶ cm/s. The Papp B→A at 2 h, 200 μM ([3]; Caco-2, with 100 μM CsA (P-gp inhibitor and substrate), secretory transport, + 100 μM CsA (P-gp inhibitor and substrate)) was 0.348 ± 0.014 ×10⁻⁶ cm/s, the efflux ratio at 2 h, 200 μM ([3]; Caco-2, with 100 μM Vep (P-gp inhibitor), + 100 μM Vep (P-gp inhibitor)) was 0.73 ± 0.05 and the Papp A→B at 2 h, 200 μM ([3]; Caco-2, with 100 μM Vep (P-gp inhibitor), absorptive transport, + 100 μM Vep (P-gp inhibitor)) was 0.415 ± 0.014 ×10⁻⁶ cm/s. The Papp B→A at 2 h, 200 μM ([3]; Caco-2, with 100 μM Vep (P-gp inhibitor), secretory transport, + 100 μM Vep (P-gp inhibitor)) was 0.301 ± 0.012 ×10⁻⁶ cm/s, the “increase of the influx” value (Caco-2 cell monolayers; with CsA vs control) was 2.0 times and the “fold increase in the influx” value (Caco-2 cell monolayers; with MK-571 vs control) was 1.47 fold. For the same molecule, the “fold increase in the influx” value (Caco-2 cell monolayers; with verapamil vs control) was 1.50 fold, the IC50 (Caco-2 cells [4]; + CsA) was 584 ± 26.9 µM and the IC50 (Caco-2 cells [4]; + FTC) was 492 ± 34.2 µM. It also gave an IC50 (Caco-2 cells [4]; + MK-571) of 463 ± 80.8 µM, an IC50 (Caco-2 cells [4]; + VEP) of 517 ± 66.2 µM and an IC50 (Caco-2 cells [4]; Homo sapiens, Ctrl (no inhibitor)) of 681 ± 19.2 µM.
